Measured values published in ChEMBL document CHEMBL1201862, “PubChem BioAssay data set” (2004).
One block for each molecule: values may come before it. Calls of active or inactive are those of the source.

Key:
[1] = biological target: MAP kinase-activated protein kinase 5 (Homo sapiens, UniProt Q8IW41); format: functional;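 also: measured as one member of a kinome panel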
[2] = biological target: Serine/threonine-protein kinase D2 (Homo sapiens, UniProt Q9BZL6); format: functional;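 also: measured against PRKD2 as one member of a kinome-wide kinase profiling panel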
[3] = biological target: Tyrosine-protein kinase Fer (Homo sapiens, UniProt P16591); format: functional;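 also: FER tested as one member of a kinome panel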
[4] = biological target: RAC-alpha serine/threonine-protein kinase (Homo sapiens, UniProt P31749); format: functional;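 also: AKT1 affinity measured as one member of a kinome-wide kinase profiling panel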
[5] = biological target: Protein-tyrosine kinase 2-beta (Homo sapiens, UniProt Q14289); format: functional
[6] = biological target: Protein kinase C delta type (Homo sapiens, UniProt Q05655); format: functional
[7] = biological target: Glycogen synthase kinase-3 alpha (Homo sapiens, UniProt P49840); format: functional;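 also: GSK3A result taken from a broad kinome-wide kinase panel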
[8] = biological target: Tyrosine-protein kinase ITK/TSK (Homo sapiens, UniProt Q08881); format: functional;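 also: affinity for ITK measured as one member of a broad kinase panel profiling binding across the kinome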
[9] = biological target: Cell division cycle 7-related protein kinase (Homo sapiens, UniProt O00311); format: functional;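 also: value obtained from a kinome-wide kinase panel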
[10] = biological target: Serine/threonine-protein kinase Nek4 (Homo sapiens, UniProt P51957); format: functional
[11] = biological target: Tyrosine-protein kinase ABL1 (Homo sapiens, UniProt P00519); format: functional
[12] = biological target: Serine/threonine-protein kinase DCLK1 (Homo sapiens, UniProt O15075); format: functional;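 also: affinity for DCLK1 (listed as DCAMKL1) measured as one member of a kinome-wide kinase profiling panel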
[13] = biological target: Mast/stem cell growth factor receptor Kit (Homo sapiens, UniProt P10721); format: functional;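 also: KIT entry within a kinase panel assay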
[14] = biological target: Tyrosine-protein kinase Srms (Homo sapiens, UniProt Q9H3Y6); format: functional;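 also: SRMS measured as one member of a kinome-wide kinase profiling panel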
[15] = biological target: Protein kinase C iota type (Homo sapiens, UniProt P41743); format: functional;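 also: measured within a kinome-wide kinase panel, PRKCI as panel member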
[16] = biological target: Homeodomain-interacting protein kinase 4 (Homo sapiens, UniProt Q8NE63); format: functional
[17] = biological target: Mitogen-activated protein kinase kinase kinase kinase 5 (Homo sapiens, UniProt Q9Y4K4); format: functional;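 also: measured as one member of a kinome-spanning kinase panel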
[18] = biological target: Macrophage-stimulating protein receptor (Homo sapiens, UniProt Q04912); test: Navigating the Kinome. Panel member name: MST1R; format: functional
[19] = biological target: Dual specificity tyrosine-phosphorylation-regulated kinase 1A (Homo sapiens, UniProt Q13627); format: functional;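 also: measured against DYRK1A as one member of a broad kinome profiling panel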
Ephrin type-A receptor 2 = Ephrin type-A receptor 2 (Homo sapiens, UniProt P29317); format: functional;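 also: EPHA2 tested as one member of a kinome-wide kinase panel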
Misshapen-like kinase 1 = Misshapen-like kinase 1 (Homo sapiens, UniProt Q8N4C8); format: functional;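 also: kinome panel screen with MINK as the panel member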
[20] = biological target: Megakaryocyte-associated tyrosine-protein kinase (Homo sapiens, UniProt P42679); format: functional;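 also: affinity measured as one member of a kinase panel (Navigating the Kinome) against MATK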
[21] = biological target: Serine/threonine-protein kinase Chk1 (Homo sapiens, UniProt O14757); format: functional;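 also: measured as one member of a kinome-wide kinase profiling panel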
[22] = biological target: Induced myeloid leukemia cell differentiation protein Mcl-1 (Homo sapiens, UniProt Q07820); format: functional
Leucine aminopeptidase = biological target: T1, Leucine aminopeptidase (Plasmodium falciparum 3D7, UniProt Q8IL11); test: P. falciparum M17LAP inhibitors, primary screen, biochemical, fluorogenic H-Leu-NHMec substrate, 1536-well (AID 1619); format: functional
T1 sequence (Q8IL11 whole entry): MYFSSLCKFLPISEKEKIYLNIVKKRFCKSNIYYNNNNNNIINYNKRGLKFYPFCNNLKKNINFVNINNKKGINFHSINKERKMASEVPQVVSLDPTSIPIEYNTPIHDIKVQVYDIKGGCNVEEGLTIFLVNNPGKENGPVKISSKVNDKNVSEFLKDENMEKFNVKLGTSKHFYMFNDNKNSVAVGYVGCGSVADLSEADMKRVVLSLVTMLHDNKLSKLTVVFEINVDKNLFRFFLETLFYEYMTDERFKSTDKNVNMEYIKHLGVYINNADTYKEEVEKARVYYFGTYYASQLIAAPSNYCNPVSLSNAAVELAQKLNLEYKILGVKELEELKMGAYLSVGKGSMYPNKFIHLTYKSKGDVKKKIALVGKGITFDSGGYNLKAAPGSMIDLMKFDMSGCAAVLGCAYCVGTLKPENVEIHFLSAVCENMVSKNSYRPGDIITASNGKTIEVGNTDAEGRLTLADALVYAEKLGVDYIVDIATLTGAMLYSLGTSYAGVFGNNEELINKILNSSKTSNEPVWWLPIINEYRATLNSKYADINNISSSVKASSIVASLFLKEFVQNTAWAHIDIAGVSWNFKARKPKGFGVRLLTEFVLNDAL

[23] = biological target: T2, Alkaline phosphatase, tissue-nonspecific isozyme (Homo sapiens, UniProt P05186); test: TNAP enzyme inhibition by screening hits, dose response, selectivity assay for mouse IAP inhibitor project, biochemical, human TNAP, uHTS hits (AID 488906); format: functional
T2 sequence (P05186 whole entry): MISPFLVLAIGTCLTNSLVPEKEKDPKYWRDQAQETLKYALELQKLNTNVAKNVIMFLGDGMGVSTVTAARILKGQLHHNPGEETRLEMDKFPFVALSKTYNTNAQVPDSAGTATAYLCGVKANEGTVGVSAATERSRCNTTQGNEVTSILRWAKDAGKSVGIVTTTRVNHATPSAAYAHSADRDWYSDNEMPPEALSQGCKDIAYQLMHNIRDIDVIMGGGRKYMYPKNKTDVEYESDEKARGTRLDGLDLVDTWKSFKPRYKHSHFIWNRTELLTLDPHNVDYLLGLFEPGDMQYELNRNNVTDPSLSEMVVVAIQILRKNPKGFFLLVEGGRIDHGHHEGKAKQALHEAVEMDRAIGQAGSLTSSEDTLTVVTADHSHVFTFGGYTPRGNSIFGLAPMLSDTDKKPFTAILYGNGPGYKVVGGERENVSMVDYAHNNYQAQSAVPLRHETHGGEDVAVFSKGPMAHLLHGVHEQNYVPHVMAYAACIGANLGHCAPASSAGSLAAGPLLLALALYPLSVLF

[24] = luciferase reporter signal suppression in cells – H4 neuroglioma cells, luminescence, dose response (AID 1990); format: functional, cell-based
Integrin alpha-4 = Integrin alpha-4 (Homo sapiens, UniProt P13612); test: allosteric modulators of alpha4 integrin VLA-4 – cell-based, LIBS antibody binding, flow cytometry, SAR follow-up (AID 488791); format: functional
[25] = DRD fibroblast viability loss – cell-based, non-viral oncogenic, luminescence, dose response (AID 1934); format: functional; details: Homo sapiens
BJ = test: BJ-TERT-LT-ST fibroblast viability loss – cell-based, RAS-independent, luminescence, dose response (AID 1935); format: functional; details: Homo sapiens;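 also: BJ fibroblasts immortalized with TERT plus LT and ST oncogenes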

Sequence of Integrin alpha-4 (P13612 whole entry): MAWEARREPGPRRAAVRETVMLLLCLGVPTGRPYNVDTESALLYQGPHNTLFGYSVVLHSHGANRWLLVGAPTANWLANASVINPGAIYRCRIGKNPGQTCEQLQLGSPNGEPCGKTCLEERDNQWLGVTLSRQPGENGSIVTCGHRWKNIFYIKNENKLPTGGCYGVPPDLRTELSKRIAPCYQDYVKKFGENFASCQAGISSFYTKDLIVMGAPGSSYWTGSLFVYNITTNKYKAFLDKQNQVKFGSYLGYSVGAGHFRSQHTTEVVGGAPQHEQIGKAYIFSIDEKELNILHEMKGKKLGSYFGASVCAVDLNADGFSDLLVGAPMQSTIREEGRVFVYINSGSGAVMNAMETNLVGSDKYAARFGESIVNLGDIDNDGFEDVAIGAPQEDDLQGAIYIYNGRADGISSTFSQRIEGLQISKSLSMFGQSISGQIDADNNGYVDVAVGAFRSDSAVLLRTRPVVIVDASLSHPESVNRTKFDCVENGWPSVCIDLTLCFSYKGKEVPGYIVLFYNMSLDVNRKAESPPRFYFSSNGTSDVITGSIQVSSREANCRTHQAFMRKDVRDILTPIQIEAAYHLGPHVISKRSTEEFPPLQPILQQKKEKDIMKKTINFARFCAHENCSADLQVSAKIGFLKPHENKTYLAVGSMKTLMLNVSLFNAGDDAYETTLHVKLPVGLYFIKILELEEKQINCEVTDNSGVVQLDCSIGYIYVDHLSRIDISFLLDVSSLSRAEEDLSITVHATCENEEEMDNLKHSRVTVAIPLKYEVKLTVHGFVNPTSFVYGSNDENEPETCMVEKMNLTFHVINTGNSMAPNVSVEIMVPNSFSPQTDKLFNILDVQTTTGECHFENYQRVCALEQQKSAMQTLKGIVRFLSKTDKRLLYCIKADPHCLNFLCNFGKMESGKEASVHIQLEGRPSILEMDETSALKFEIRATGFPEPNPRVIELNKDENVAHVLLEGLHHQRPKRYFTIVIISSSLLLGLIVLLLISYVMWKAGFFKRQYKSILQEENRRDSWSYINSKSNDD
Sequence of Mitogen-activated protein kinase kinase kinase kinase 5 (Q9Y4K4 whole entry): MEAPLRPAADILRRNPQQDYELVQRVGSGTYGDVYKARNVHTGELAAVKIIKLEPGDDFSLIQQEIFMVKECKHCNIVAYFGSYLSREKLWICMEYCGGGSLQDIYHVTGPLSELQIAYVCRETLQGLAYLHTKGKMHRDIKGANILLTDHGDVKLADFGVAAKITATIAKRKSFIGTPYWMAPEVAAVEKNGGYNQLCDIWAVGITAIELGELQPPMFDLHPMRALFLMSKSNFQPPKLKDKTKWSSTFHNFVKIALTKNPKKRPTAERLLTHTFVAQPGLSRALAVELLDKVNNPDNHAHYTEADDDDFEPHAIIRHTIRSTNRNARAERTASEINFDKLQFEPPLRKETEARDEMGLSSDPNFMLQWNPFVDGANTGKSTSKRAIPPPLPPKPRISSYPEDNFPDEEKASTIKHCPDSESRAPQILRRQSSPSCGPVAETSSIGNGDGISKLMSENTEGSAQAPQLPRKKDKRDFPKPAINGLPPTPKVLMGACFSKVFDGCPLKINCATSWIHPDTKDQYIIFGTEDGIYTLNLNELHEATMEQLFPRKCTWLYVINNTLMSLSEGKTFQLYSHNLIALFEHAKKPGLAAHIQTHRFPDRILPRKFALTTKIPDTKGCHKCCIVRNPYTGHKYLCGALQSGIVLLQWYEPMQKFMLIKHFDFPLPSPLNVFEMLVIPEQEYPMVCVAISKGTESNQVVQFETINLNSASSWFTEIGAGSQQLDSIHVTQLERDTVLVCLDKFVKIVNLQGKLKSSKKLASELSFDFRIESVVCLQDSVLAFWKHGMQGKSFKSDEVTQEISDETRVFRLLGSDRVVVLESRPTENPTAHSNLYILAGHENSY
Sequence of Homeodomain-interacting protein kinase 4 (Q8NE63 whole entry): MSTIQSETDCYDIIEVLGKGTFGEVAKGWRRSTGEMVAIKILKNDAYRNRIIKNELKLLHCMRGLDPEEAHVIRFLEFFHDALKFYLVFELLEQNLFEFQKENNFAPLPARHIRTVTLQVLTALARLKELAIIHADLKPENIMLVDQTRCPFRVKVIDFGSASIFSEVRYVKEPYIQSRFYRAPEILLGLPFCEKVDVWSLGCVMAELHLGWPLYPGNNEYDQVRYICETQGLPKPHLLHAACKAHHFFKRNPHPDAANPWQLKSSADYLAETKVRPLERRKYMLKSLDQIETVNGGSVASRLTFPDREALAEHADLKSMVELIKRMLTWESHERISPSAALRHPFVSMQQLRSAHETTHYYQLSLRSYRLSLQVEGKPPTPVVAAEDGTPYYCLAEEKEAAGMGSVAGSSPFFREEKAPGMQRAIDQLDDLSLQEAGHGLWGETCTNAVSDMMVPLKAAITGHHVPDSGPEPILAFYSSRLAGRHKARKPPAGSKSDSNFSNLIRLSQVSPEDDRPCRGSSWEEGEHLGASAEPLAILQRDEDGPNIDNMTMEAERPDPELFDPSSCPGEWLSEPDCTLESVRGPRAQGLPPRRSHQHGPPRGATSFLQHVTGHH
Sequence of Cell division cycle 7-related protein kinase (O00311 whole entry): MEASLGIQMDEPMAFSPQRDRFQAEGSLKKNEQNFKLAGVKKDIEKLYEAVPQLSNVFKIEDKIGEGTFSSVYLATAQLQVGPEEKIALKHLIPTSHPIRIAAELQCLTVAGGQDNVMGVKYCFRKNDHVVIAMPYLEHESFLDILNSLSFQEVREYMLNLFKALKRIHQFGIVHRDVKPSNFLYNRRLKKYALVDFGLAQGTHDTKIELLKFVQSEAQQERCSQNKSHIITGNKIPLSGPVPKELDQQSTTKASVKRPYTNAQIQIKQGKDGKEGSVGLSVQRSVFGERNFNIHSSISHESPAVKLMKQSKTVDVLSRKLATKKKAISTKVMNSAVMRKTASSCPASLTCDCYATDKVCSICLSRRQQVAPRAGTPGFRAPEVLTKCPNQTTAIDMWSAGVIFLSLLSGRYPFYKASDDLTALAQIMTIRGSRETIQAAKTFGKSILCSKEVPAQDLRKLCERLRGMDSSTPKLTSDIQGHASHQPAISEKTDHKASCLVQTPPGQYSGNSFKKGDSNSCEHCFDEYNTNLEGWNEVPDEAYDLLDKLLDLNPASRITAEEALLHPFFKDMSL
Sequence of Ephrin type-A receptor 2 (P29317 whole entry): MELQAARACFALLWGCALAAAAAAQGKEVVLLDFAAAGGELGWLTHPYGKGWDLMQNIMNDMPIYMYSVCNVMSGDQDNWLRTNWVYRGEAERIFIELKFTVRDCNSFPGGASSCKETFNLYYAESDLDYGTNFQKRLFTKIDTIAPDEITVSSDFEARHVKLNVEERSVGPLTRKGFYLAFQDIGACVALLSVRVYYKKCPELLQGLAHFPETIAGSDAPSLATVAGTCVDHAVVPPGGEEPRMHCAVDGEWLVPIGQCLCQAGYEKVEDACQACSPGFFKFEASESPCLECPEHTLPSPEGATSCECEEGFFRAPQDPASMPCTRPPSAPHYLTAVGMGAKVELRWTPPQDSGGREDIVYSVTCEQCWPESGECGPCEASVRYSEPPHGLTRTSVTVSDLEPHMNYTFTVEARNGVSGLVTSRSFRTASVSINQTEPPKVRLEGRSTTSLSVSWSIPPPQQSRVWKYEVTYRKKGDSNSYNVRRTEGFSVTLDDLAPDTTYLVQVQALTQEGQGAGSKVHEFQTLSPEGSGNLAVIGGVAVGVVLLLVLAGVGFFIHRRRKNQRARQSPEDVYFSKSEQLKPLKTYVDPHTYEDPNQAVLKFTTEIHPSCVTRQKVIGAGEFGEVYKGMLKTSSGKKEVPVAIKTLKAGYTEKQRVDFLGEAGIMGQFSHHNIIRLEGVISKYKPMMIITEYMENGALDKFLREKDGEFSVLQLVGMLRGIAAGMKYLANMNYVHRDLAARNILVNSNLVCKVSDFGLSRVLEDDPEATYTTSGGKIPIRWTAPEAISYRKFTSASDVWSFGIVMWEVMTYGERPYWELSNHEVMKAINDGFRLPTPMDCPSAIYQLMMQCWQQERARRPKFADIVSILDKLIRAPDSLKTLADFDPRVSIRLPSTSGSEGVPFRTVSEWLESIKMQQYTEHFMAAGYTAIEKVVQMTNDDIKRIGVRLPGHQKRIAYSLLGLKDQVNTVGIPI
Sequence of Glycogen synthase kinase-3 alpha (P49840 whole entry): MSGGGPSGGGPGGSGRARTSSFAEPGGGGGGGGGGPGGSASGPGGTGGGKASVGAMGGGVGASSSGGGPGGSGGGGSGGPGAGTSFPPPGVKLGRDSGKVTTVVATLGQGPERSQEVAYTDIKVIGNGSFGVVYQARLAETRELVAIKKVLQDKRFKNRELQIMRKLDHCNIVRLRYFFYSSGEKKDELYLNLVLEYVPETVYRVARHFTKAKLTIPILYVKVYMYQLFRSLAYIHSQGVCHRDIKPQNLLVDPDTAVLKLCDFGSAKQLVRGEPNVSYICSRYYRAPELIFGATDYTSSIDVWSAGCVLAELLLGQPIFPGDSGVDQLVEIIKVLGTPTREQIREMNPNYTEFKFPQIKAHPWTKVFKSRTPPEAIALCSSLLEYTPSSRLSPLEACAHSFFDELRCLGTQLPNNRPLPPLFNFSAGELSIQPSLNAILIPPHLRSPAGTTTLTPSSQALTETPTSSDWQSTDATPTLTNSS
Sequence of Megakaryocyte-associated tyrosine-protein kinase (P42679 whole entry): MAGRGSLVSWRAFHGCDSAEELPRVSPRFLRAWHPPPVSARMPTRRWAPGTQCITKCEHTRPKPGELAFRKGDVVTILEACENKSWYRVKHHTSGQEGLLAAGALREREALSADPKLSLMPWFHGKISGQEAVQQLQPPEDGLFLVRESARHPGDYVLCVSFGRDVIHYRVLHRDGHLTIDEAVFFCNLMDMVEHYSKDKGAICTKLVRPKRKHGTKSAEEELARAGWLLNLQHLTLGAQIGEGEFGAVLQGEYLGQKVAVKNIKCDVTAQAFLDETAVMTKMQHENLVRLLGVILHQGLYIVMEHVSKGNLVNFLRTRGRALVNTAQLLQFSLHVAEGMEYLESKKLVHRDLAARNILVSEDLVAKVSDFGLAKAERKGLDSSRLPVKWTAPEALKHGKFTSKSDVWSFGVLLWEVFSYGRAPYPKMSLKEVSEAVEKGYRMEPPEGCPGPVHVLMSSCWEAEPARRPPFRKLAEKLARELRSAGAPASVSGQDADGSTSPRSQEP

- Ki [1]: > 1.58 µM (inactive)
- Ki [2]: 7.94 µM (active)
- Ki [3]: > 1.58 µM (inactive)
- Ki [4]: > 7.94 µM (inactive)
- Ki [5]: > 1.58 µM (inactive)
- Ki [6]: > 7.94 µM (inactive)
- Ki [7]: > 50.1 µM (inactive)
- Ki [8]: > 1.58 µM (inactive)
- Ki [9]: > 1.26 µM (inactive)
- Ki [10]: > 6.31 µM (inactive)
- Ki [11]: > 1 µM (inactive)
- Ki [12]: > 10 µM (inactive)
- Ki [13]: > 1.26 µM (inactive)
- Ki [14]: > 1.58 µM (inactive)
- Ki [15]: > 5.01 µM (inactive)
- Ki [16]: > 7.94 µM (inactive)
- Ki [17]: > 7.94 µM (inactive)
- Ki [18]: 20 µM (active)
- Ki [19]: 2 µM (active)
- Ki (Ephrin type-A receptor 2): > 3.16 µM (inactive)
- Ki (Misshapen-like kinase 1): 3.16 µM (active)
- Ki [20]: > 2 µM (inactive)
- Ki [21]: > 7.94 µM (inactive)
Compound: Nc1noc2cccc(-c3cccc(O)c3)c12

Compound: O=C1NC(=S)S/C1=C\C=C\c1ccc([N+](=O)[O-])o1
- IC50 [22]: 1.92 µM (active)

- IC50 (Leucine aminopeptidase): 20.5 µM (active)
- IC50 [23]: > 100 µM (inactive)
Compound: O=C(NN1C(=O)CSC1=S)C(=O)NN1C(=O)CSC1=S

Compound: COC(=O)C1CN(C#N)N(c2ccc(Cl)cc2)C12c1ccccc1-c1ccccc12 (stereo not given)
- EC50 [24]: > 120 µM (not active)
- EC50 (Integrin alpha-4): 18.9 µM (active)
- EC50 [25]: 3.75 µM (active)
- EC50 (BJ): 2.49 µM (inconclusive)
